Measurements reported in the NIST ThermoML archive (doi:10.1021/je0342320).
Numbers after ± are expanded uncertainties.

Conditions: Liquid, Vibrating tube method

CCCCCCCCCC [decane]
mass density [kg/m3]
Conditions	100 kPa	5000 kPa	10000 kPa	15000 kPa	20000 kPa	25000 kPa	30000 kPa	35000 kPa	40000 kPa
283.15 K	737.4 ± 0.44	740.81 ± 0.45	744.17 ± 0.47	747.39 ± 0.49	750.49 ± 0.52	753.52 ± 0.54	756.43 ± 0.57	759.27 ± 0.59	762.02 ± 0.62
288.15 K	733.69 ± 0.44	737.19 ± 0.45	740.63 ± 0.47	743.93 ± 0.49	747.14 ± 0.52	750.22 ± 0.54	753.19 ± 0.57	756.11 ± 0.6	758.92 ± 0.62
293.15 K	729.94 ± 0.44	733.53 ± 0.45	737.08 ± 0.47	740.5 ± 0.5	743.76 ± 0.52	746.92 ± 0.55	749.98 ± 0.57	752.94 ± 0.6	755.79 ± 0.63
298.15 K	726.19 ± 0.44	729.88 ± 0.45	733.52 ± 0.47	737 ± 0.5	740.37 ± 0.52	743.6 ± 0.55	746.72 ± 0.57	749.72 ± 0.6	752.67 ± 0.63
303.15 K	722.46 ± 0.44	726.23 ± 0.45	729.98 ± 0.47	733.55 ± 0.5	736.98 ± 0.52	740.29 ± 0.55	743.46 ± 0.58	746.54 ± 0.61	749.5 ± 0.64
